Data: US9988429B2, “Glucagon analogues” (Zealand Pharma A/S, priority 2013, dated 2018)
Starred links: 1 amine or outer side, 2 acyl side, 3 side chain; linkers in the order of their positions; H or OH if unused. Non-standard residues stand in square brackets, D forms with d. Residues, ends and D or L forms follow the SMILES beside them. Groups on a side chain read outwards from the residue. *: point of attachment. γGlu = O=C(O)[C@H](CCC(=O)[*:2])N[*:1]; Palmitoyl = CCCCCCCCCCCCCCCC(=O)*; Ac4c = NC1(C(=O)O)CCC1; Aib = CC(C)(N)C(=O)O

Legend:
[1] = target: T1, human glucagon receptor (Glucagon-R) (Homo sapiens, UniProt P47871); assay: Glucagon receptor efficacy assay (cAMP AlphaScreen, CHO cells); type: cell-based; conditions: cAMP formation, CHO cells expressing human Glucagon-R; read-out: EC50 hGCGR CHO-K1
T1 construct: expressed in transfected cells
Method: (§1) The mammalian expression vectors encoding the Glucagon-R or the GLP-1-R were transfected into Chinese hamster ovary (CHO) cells by the Attractene method. Stably expressing clones were obtained by Zeocin selection (250 μg/mL) upon limited dilution of cells resistant to the selection pressure. […] One Glucagon-R expressing clone and one GLP-1-R expressing clone were chosen for compound profiling.
(§2) CHO cells expressing the human Glucagon-R, or human GLP-1-R were seeded 24 hours prior to the assay at 30,000 cells per well in 96-well microtiter plates in culture in 100 μl growth medium. On the day of analysis, growth medium was removed and the cells were washed once with 200 μl of assay buffer (Krebs-Ringer-buffer—KRBH). The buffer was removed and the cells were incubated for 15 min at room temperature in 10 μl KRBH (KRBH+10 mM HEPES, 5 mM NaHCO3, 0.1% (V/V) BSA) with 0.1 mM IBMX in deionized water containing increasing concentrations of test peptides. The reaction was stopped by the addition of lysis buffer (0.1% w/v BSA, 5 mM HEPES, 0.3% v/v Tween-20). After cell lysis for 10 min at room temperature, lysates were transferred to 384-well plates and 10 μl of acceptor/donorbead mixture as contained in the AlphaScreen™ cAMP Functional Assay Kit was added. After one hour of incubation at room temperature in the dark, the cAMP content was determined applying the AlphaScreen™ cAMP Functional Assay Kit from Perkin-Elmer according to manufacturer instructions. […] The GLP-1/glucagon ratio is calculated as defined earlier.

[2] = target: T2, human glucagon-like peptide 1 receptor (GLP-1R) (Homo sapiens, UniProt P43220); assay: GLP-1 receptor efficacy assay (cAMP AlphaScreen, CHO cells); type: cell-based; conditions: for Ratio GLP-1/Glucagon: EC50 [GLP-1R] / EC50 [Glucagon-R], human receptors in CHO-K1; for EC50: cAMP formation, CHO cells expressing human GLP-1-R, read-out: EC50 hGLP-1R CHO-K1
T2 construct: expressed in transfected cells
Method: as §1, §2

[3] = target: human glucagon receptor (Glucagon-R) (human, UniProt P47871 26-477); assay: cell-based or functional assay
[4] = target: human glucagon-like peptide 1 receptor (GLP-1R) (human, UniProt P43220 24-463); assay: cell-based or functional assay
[5] = target: T3, endogenous GLP-1 receptor of a murine insulinoma cell line (murine, UniProt O35659 22-463); assay: cell-based or functional assay
T3 sequence (looked up): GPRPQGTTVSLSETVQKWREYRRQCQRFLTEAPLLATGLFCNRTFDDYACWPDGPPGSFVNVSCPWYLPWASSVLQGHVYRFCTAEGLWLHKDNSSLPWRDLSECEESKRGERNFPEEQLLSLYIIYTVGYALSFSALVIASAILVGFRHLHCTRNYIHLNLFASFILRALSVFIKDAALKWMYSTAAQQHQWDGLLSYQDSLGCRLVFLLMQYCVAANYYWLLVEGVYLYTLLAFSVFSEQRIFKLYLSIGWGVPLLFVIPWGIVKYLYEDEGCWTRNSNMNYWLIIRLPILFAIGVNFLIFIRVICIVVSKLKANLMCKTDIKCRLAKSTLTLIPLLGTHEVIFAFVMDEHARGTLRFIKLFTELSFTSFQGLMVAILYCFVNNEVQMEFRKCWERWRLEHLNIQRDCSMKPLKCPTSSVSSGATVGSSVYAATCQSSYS

[6] = target: endogenous glucagon receptor of primary rat hepatocytes (rat, UniProt P30082 27-485); assay: cell-based or functional assay
Chain of endogenous glucagon receptor of primary rat hepatocytes (P30082 27-485): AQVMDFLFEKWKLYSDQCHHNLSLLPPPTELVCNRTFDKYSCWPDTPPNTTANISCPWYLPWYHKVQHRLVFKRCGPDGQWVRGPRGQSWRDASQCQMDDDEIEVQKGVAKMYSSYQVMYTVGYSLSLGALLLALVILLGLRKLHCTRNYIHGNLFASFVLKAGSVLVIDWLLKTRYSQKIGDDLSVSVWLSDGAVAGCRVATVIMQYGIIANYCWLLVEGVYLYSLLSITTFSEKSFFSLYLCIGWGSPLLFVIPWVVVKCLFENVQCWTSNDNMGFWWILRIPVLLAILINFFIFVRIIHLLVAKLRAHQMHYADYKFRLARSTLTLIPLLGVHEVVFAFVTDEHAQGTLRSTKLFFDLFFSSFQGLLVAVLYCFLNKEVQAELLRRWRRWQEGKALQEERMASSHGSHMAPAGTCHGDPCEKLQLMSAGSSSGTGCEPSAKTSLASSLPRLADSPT

T1 sequence (P47871 26-477): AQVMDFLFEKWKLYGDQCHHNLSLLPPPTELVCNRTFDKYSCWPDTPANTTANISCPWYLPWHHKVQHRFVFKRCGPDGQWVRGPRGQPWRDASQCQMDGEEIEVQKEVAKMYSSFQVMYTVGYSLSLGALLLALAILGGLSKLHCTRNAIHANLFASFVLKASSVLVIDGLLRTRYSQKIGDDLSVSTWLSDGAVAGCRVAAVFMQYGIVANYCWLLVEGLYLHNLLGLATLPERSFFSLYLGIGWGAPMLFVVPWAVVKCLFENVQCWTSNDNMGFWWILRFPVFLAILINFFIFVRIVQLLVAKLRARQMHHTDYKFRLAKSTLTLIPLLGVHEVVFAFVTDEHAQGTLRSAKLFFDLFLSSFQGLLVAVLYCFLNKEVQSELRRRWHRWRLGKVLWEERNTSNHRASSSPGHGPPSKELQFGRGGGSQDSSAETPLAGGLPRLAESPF
T2 sequence (P43220 24-463): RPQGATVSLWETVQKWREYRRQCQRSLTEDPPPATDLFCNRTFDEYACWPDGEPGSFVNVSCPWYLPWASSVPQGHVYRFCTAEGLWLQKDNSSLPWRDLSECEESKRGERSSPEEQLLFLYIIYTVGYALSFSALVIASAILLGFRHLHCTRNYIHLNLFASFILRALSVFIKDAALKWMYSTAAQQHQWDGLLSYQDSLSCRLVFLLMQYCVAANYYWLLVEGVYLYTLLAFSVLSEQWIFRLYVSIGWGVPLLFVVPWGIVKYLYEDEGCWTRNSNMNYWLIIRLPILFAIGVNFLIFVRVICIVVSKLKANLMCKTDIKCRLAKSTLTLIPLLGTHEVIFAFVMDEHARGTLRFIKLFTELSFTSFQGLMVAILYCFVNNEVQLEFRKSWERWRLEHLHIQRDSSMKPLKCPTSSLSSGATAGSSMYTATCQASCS
Chain of human glucagon receptor (Glucagon-R) (human, UniProt P47871 26-477) (P47871 26-477): as the sequence (P47871 26-477) above

Molecule	EC50 [1]	Ratio GLP-1/Glucagon [2]	EC50 [2]	EC50 hGCGR CHO-K1 [nM] (cAMP, AlphaScreen) [3]	EC50 hGLP-1R CHO-K1 [nM] (cAMP, AlphaScreen) [4]	EC50 [nM] (cAMP in murine insulinoma cell line) [5]	EC50 [nM] (inhibition of glycogen synthesis rate in primary rat hepatocytes) [6]
CCCCCCCCCCCCCCCC(=O)N[C@@H](CCC(=O)NCCCC[C@H](NC(=O)[C@H](CCC(=O)O)NC(=O)[C@H](CC(=O)O)NC(=O)[C@H](CC(C)C)NC(=O)[C@H](Cc1ccc(O)cc1)NC(=O)[C@H](CCCCN)NC(=O)[C@H](CO)NC(=O)[C@H](Cc1ccc(O)cc1)NC(=O)[C@H](CC(=O)O)NC(=O)[C@H](CO)NC(=O)[C@@H](NC(=O)[C@H](Cc1ccccc1)NC(=O)[C@@H](NC(=O)CNC(=O)[C@H](Cc1c[nH]cn1)NC(=O)C1(NC(=O)[C@@H](N)Cc2c[nH]cn2)CCC1)[C@@H](C)O)[C@@H](C)O)C(=O)N[C@@H](C)C(=O)N[C@@H](C)C(=O)N[C@@H](CCCCN)C(=O)N[C@@H](CC(=O)O)C(=O)N[C@@H](Cc1ccccc1)C(=O)N[C@H](C(=O)N[C@@H](CCC(=O)O)C(=O)N[C@@H](Cc1c[nH]c2ccccc12)C(=O)N[C@@H](CC(C)C)C(=O)N[C@@H](CCC(=O)O)C(=O)N[C@@H](CO)C(=O)N[C@@H](C)C(N)=O)[C@@H](C)CC)C(=O)O [Compound 15]	100 pM	–	–	–	–	–	–
CCCCCCCCCCCCCCCC(=O)N[C@@H](CCC(=O)NCCCC[C@H](NC(=O)[C@H](CO)NC(=O)[C@H](CC(=O)O)NC(=O)[C@H](CC(C)C)NC(=O)[C@H](Cc1ccc(O)cc1)NC(=O)[C@H](CCCCN)NC(=O)[C@H](CO)NC(=O)[C@H](Cc1ccc(O)cc1)NC(=O)[C@H](CC(=O)O)NC(=O)[C@H](CO)NC(=O)[C@@H](NC(=O)[C@H](Cc1ccccc1)NC(=O)[C@@H](NC(=O)CNC(=O)[C@H](Cc1c[nH]cn1)NC(=O)[C@H](CO)NC(=O)[C@@H](N)Cc1c[nH]cn1)[C@@H](C)O)[C@@H](C)O)C(=O)N[C@@H](C)C(=O)N[C@@H](C)C(=O)N[C@@H](Cc1c[nH]cn1)C(=O)N[C@@H](CC(=O)O)C(=O)N[C@@H](Cc1ccccc1)C(=O)N[C@H](C(=O)N[C@@H](CCC(=O)O)C(=O)N[C@@H](Cc1c[nH]c2ccccc12)C(=O)N[C@@H](CC(C)C)C(=O)N[C@@H](CC(C)C)C(=O)N[C@@H](CO)C(=O)N[C@@H](C)C(N)=O)C(C)C)C(=O)O [Compound 5] (H-HSHGTFTSDYSKYLDSK([γGlu-Palmitoyl])AAHDFVEWLLSA-NH2)	120 pM	2.25	270 pM	–	–	–	–
CCCCCCCCCCCCCCCC(=O)N[C@@H](CCC(=O)NCCCC[C@H](NC(=O)[C@H](CCC(=O)O)NC(=O)[C@H](CC(=O)O)NC(=O)[C@H](CC(C)C)NC(=O)[C@H](Cc1ccc(O)cc1)NC(=O)[C@H](CCCCN)NC(=O)[C@H](CO)NC(=O)[C@H](Cc1ccc(O)cc1)NC(=O)[C@H](CC(=O)O)NC(=O)[C@H](CO)NC(=O)[C@@H](NC(=O)[C@H](Cc1ccccc1)NC(=O)[C@@H](NC(=O)CNC(=O)[C@H](CCC(N)=O)NC(=O)[C@H](CC)NC(=O)[C@@H](N)Cc1c[nH]cn1)[C@@H](C)O)[C@@H](C)O)C(=O)N[C@@H](C)C(=O)N[C@@H](C)C(=O)N[C@@H](CCCCN)C(=O)N[C@@H](CC(=O)O)C(=O)N[C@@H](Cc1ccccc1)C(=O)N[C@H](C(=O)N[C@@H](CCC(=O)O)C(=O)N[C@@H](Cc1c[nH]c2ccccc12)C(=O)N[C@@H](CC(C)C)C(=O)N[C@@H](CCC(=O)O)C(=O)N[C@@H](CO)C(=O)N[C@@H](C)C(N)=O)[C@@H](C)CC)C(=O)O [Compound 10]	100 pM	2.7	270 pM	–	–	–	–
CCCCCCCCCCCCCCCC(=O)N[C@@H](CCC(=O)NCCCC[C@H](NC(=O)[C@H](CO)NC(=O)[C@H](CC(=O)O)NC(=O)[C@H](CC(C)C)NC(=O)[C@H](Cc1ccc(O)cc1)NC(=O)[C@H](CCCCN)NC(=O)[C@H](CO)NC(=O)[C@H](Cc1ccc(O)cc1)NC(=O)[C@H](CC(=O)O)NC(=O)[C@H](CO)NC(=O)[C@@H](NC(=O)[C@H](Cc1ccccc1)NC(=O)[C@@H](NC(=O)CNC(=O)[C@H](CCC(N)=O)NC(=O)C1(NC(=O)[C@@H](N)Cc2c[nH]cn2)CCC1)[C@@H](C)O)[C@@H](C)O)C(=O)N[C@@H](C)C(=O)N[C@@H](C)C(=O)N[C@@H](Cc1c[nH]cn1)C(=O)N[C@@H](CC(=O)O)C(=O)N[C@@H](Cc1ccccc1)C(=O)N[C@H](C(=O)N[C@@H](CCC(=O)O)C(=O)N[C@@H](Cc1c[nH]c2ccccc12)C(=O)N[C@@H](CC(C)C)C(=O)N[C@@H](CC(C)C)C(=O)N[C@@H](CO)C(=O)N[C@@H](C)C(N)=O)C(C)C)C(=O)O [Compound 4]	120 pM	2.59	–	–	–	–	–
H-H[Aib]QGTFTSDYSKYLDEK([γGlu-Palmitoyl])AAKDFIEWLEEE-NH2 (SMILES CCCCCCCCCCCCCCCC(=O)N[C@@H](CCC(=O)NCCCC[C@H](NC(=O)[C@H](CCC(=O)O)NC(=O)[C@H](CC(=O)O)NC(=O)[C@H](CC(C)C)NC(=O)[C@H](Cc1ccc(O)cc1)NC(=O)[C@H](CCCCN)NC(=O)[C@H](CO)NC(=O)[C@H](Cc1ccc(O)cc1)NC(=O)[C@H](CC(=O)O)NC(=O)[C@H](CO)NC(=O)[C@@H](NC(=O)[C@H](Cc1ccccc1)NC(=O)[C@@H](NC(=O)CNC(=O)[C@H](CCC(N)=O)NC(=O)C(C)(C)NC(=O)[C@@H](N)Cc1c[nH]cn1)[C@@H](C)O)[C@@H](C)O)C(=O)N[C@@H](C)C(=O)N[C@@H](C)C(=O)N[C@@H](CCCCN)C(=O)N[C@@H](CC(=O)O)C(=O)N[C@@H](Cc1ccccc1)C(=O)N[C@H](C(=O)N[C@@H](CCC(=O)O)C(=O)N[C@@H](Cc1c[nH]c2ccccc12)C(=O)N[C@@H](CC(C)C)C(=O)N[C@@H](CCC(=O)O)C(=O)N[C@@H](CCC(=O)O)C(=O)N[C@@H](CCC(=O)O)C(N)=O)[C@@H](C)CC)C(=O)O) [Compound 17: H-H-Aib-QGTFTSDYSKYLDE-K(Hexadecanoyl-isoGlu)-AAKDFIEWLEEE-NH2]	–	–	–	0.08 nM	0.27 nM	0.21 nM	2.26 nM
H-H[Ac4c]QGTFTSDYSKYLDSK([γGlu-Palmitoyl])AAHDFVEWLLSA-NH2 (SMILES CCCCCCCCCCCCCCCC(=O)N[C@@H](CCC(=O)NCCCC[C@H](NC(=O)[C@H](CO)NC(=O)[C@H](CC(=O)O)NC(=O)[C@H](CC(C)C)NC(=O)[C@H](Cc1ccc(O)cc1)NC(=O)[C@H](CCCCN)NC(=O)[C@H](CO)NC(=O)[C@H](Cc1ccc(O)cc1)NC(=O)[C@H](CC(=O)O)NC(=O)[C@H](CO)NC(=O)[C@@H](NC(=O)[C@H](Cc1ccccc1)NC(=O)[C@@H](NC(=O)CNC(=O)[C@H](CCC(N)=O)NC(=O)C1(NC(=O)[C@@H](N)Cc2c[nH]cn2)CCC1)[C@@H](C)O)[C@@H](C)O)C(=O)N[C@@H](C)C(=O)N[C@@H](C)C(=O)N[C@@H](Cc1c[nH]cn1)C(=O)N[C@@H](CC(=O)O)C(=O)N[C@@H](Cc1ccccc1)C(=O)N[C@H](C(=O)N[C@@H](CCC(=O)O)C(=O)N[C@@H](Cc1c[nH]c2ccccc12)C(=O)N[C@@H](CC(C)C)C(=O)N[C@@H](CC(C)C)C(=O)N[C@@H](CO)C(=O)N[C@@H](C)C(N)=O)C(C)C)C(=O)O) [Compound 4: H-H-Ac4c-QGTFTSDYSKYLDS-K(Hexadecanoyl-isoGlu)-AAHDFVEWLLSA-NH2]	–	–	–	0.12 nM	0.31 nM	0.32 nM	0.37 nM
